Source: patent publication US7806924B2 (Cordis Corporation, priority 2004, dated 2010)
Blank lines part the entries; values can stand above or below the molecule they belong to.

Tests used:
[1] = system: human coronary artery smooth muscle cell proliferation; experiment: In vitro cell culture study of coronary artery smooth muscle cell proliferation; format: cell-based
Description: FIG. 51 is a graph of the inhibition of coronary artery smooth muscle cells by trichostatin A in a cell culture study.

tumor cell lines = conditions: cited from earlier work
[2] = system: human coronary artery smooth muscle cells; experiment: Anti-proliferative activity in non-synchronized cultured human coronary artery smooth muscle cells stimulated with two percent fetal bovine serum; format: cell-based; conditions: for effect on the anti-proliferative activity of rapamycin (shift of the rapamycin dose response curve): added to cells treated with rapamycin
Description: The multiple curves represent various concentrations of mycophenolic acid ranging from zero to one thousand nanomolar concentrations.
FIG. 58 illustrates, in graphical format, the anti-proliferative activity of cladribine in non-synchronized cultured human coronary artery smooth muscle cells stimulated with two percent fetal bovine serum.
The multiple curves represent various concentrations of cladribine ranging from zero to nine hundred nanomolar concentrations.

[3] = In vivo release kinetics of rapamycin and mycophenolic acid, porcine pharmacokinetics studies
Description: The topcoat is two hundred micro grams.

[4] = system: human smooth muscle cells; experiment: Cladribine Example: PDGF-stimulated proliferation, cell count on day six, smooth muscle cells; format: cell-based; conditions: from the IC50 values
Description: To assess the ability of cladribine to prevent cell proliferation, human smooth muscle or endothelial cells (Clonetics, Walkersville, Md.) were seeded at a density of 2000 cells/cm^2 (approximately 3600 cells/well) into each well of 12-well plates and cultured with 1.5 ml of growth medium containing five percent fetal calf serum (FCS). After twenty-four hours, the growth medium was changed and fresh medium containing 10 ng/ml platelet-derived growth factor AB (PDGF AB; LIFE Technologies), as well as various concentrations of cladribine (0.001-10,000 nM) were added with triplicate wells. Medium was replaced with fresh cladribine-containing medium after three days. On day six, cells were detached by trypsinization to yield a cell suspension, lightly centrifuged to pellet and then counted manually using a Neubauer hemocytometer system. Cell viability was assessed by trypan blue exclusion.

[5] = In vivo release kinetics of rapamycin and cladribine, porcine pharmacokinetics studies; parameters: species or system Yorkshire pigs; conditions: Bx Velocity stents, FIG. 63 compared to FIG. 62
Description: (§1) The basecoat is applied to Bx Velocity® stents and implanted into Yorkshire pigs.
as §1

SMILES: CC(/C=C/C(=O)NO)=C\[C@@H](C)C(=O)c1ccc(N(C)C)cc1 [trichostatin A]
- inhibition of human coronary artery smooth muscle cell proliferation [1]: completely inhibit
- IC50 ([1]; read-out: anti-proliferative IC50): ~6 nM
- anti-proliferative IC50's (tumor cell lines): low nM range

SMILES: COc1c(C)c2c(c(O)c1C/C=C(\C)CCC(=O)O)C(=O)OC2 [mycophenolic acid]
- effect on the anti-proliferative activity of rapamycin (shift of the rapamycin dose response curve) [2]: potentiates
- in vivo release from EVA/BMA basecoat (with or without BMA topcoat) ([3]; 180 micro grams rapamycin, 180 micro grams mycophenolic acid, 240 micro grams EVA/BMA): elutes more completely over a shorter duration than the rapamycin

- in vivo elution from EVA/BMA basecoat with BMA topcoat [5]: elutes more rapidly than rapamycin
SMILES: Nc1nc(Cl)nc2c1ncn2[C@H]1C[C@H](O)[C@@H](CO)O1 [cladribine, 2-chlorodeoxyadenosine]
- potency as inhibitor of smooth muscle cells relative to endothelial cells [4]: approximately twice
- inhibition of human coronary artery smooth muscle cell proliferation ([2]; FIG. 58): completely inhibits
- effect on the anti-proliferative activity of rapamycin (shift of the rapamycin dose response curve) [2]: potentiate

SMILES: CO[C@H]1C[C@@H]2CC[C@@H](C)[C@@](O)(O2)C(=O)C(=O)N2CCCC[C@H]2C(=O)O[C@H]([C@H](C)C[C@@H]2CC[C@@H](O)[C@H](OC)C2)CC(=O)[C@H](C)/C=C(\C)[C@@H](O)[C@@H](OC)C(=O)[C@H](C)C[C@H](C)/C=C/C=C/C=C/1C [Rapamycin, rapamycin]
- in vivo release rate from PVDF basecoat with PVDF topcoat ([3]; six hundred micro grams basecoat, two hundred micro grams topcoat): slower release rate than that of mycophenolic acid
